Patent publication US10377770B2 (Novartis AG, priority 2015, dated 2019)

What follows are compounds tested against C-Raf FL (full length CRAF with Y340E and Y341E activating mutations, co-expressed with h14-3-3 zeta) (Homo sapiens (Human), UniProt P04049, Y340E/Y341E) (assay: In vitro Raf activity determination, AlphaScreen p-MEK readout, c-Raf (C-Raf FL)). Conditions: c-Raf approximately 4 nM, ATP 1 μM, pre-incubation 60 minutes, reaction 1 hour.
Type: biochemical
Text: Sf9 cells co-expressing both proteins were lysed and subjected to immobilized nickel chromatography and eluted with Imidazole. A second column (StrepII binding column) was used and eluted with desthiobiotin. Protein Tags were removed using Prescission enzyme and the protein was further purified using a flowthrough step to remove tags.
C-Raf TR refers to a truncated C-Raf protein, a Δ1-324 deletion mutant. C-Raf FL refers to the full-length C-Raf protein.
Full length MEK1 with an inactivating K97R ATP binding site mutation is utilized as a RAF substrate. The MEK1 cDNA was subcloned with an N-terminal (his)6 tag into a vector for E. Coli expression. The MEK1 substrate was purified from E. Coli lysate by nickel affinity chromatography followed by anion exchange. The final MEK1 preparation was biotinylated (Pierce EZ-Link Sulfo-NHS-LC-Biotin) and concentrated.
Assay Materials: Assay buffer is 50 mM Tris, pH 7.5, 15 mM MgCl2, 0.01% Bovine Serum Albumin (BSA) and 1 mM dithiothreitol (DTT); Stop buffer is 60 mM ethylenediaminetetraacetic acid (EDTA) and 0.01% Tween® 20; b-Raf (V600E), active; biotinylated Mek, kinase dead; Alpha Screen detection kit (available from PerkinElmer™, #6760617R); Anti phospho-MEK1/2 (available from Cell Signaling Technology, Inc. #9121); 384 well low volume assay plates (White Greiner® plates).
Assay conditions: b-Raf (V600E) approximately 4 pM; c-Raf approximately 4 nM; biotinylated Mek, kinase dead approximately 10 nM; ATP 10 μM for BRAF (V600E) and 1 μM for CRAF; Pre-incubation time with compounds 60 minutes at room temperature; Reaction time 1 or 3 hours at room temperature.
Assay protocol: Raf and biotinylated Mek (kinase dead) were combined at 2× final concentrations in assay buffer (50 mM Tris, pH 7.5, 15 mM MgCl2, 0.01% BSA and 1 mM DTT) and dispensed […] per well in assay plates (Greiner white 384 well assay plates #781207) containing […] of 40× of a Raf kinase inhibitor test compound diluted in 100% DMSO. The plate was incubated for 60 minutes at room temperature. The Raf kinase activity reaction was started by the addition of […] per well of 2×ATP diluted in assay buffer. After 3 hours (b-Raf(V600E)) or 1 hour (c-Raf). The reactions were stopped and the phosphorylated product was measured using a rabbit anti-p-MEK (Cell Signaling, #9121) antibody and the Alpha Screen IgG (ProteinA) detection Kit (PerkinElmer #6760617R), by the addition of […] to the well of a mixture of the antibody (1:2000 dilution) and detection beads (1:2000 dilution of both beads) in Stop/bead buffer (25 mM EDTA, 50 mM Tris, pH 7.5, 0.01% Tween20). The additions were carried out under dark conditions to protect the detection beads from light. A lid was placed on top of the plate and incubated for 1 hour at room temperature, after which the luminescence was read on a PerkinElmer Envision instrument.

C-Raf FL (full length CRAF with Y340E and Y341E activating mutations, co-expressed with h14-3-3 zeta), sequence (P04049 whole entry Y340E/Y341E): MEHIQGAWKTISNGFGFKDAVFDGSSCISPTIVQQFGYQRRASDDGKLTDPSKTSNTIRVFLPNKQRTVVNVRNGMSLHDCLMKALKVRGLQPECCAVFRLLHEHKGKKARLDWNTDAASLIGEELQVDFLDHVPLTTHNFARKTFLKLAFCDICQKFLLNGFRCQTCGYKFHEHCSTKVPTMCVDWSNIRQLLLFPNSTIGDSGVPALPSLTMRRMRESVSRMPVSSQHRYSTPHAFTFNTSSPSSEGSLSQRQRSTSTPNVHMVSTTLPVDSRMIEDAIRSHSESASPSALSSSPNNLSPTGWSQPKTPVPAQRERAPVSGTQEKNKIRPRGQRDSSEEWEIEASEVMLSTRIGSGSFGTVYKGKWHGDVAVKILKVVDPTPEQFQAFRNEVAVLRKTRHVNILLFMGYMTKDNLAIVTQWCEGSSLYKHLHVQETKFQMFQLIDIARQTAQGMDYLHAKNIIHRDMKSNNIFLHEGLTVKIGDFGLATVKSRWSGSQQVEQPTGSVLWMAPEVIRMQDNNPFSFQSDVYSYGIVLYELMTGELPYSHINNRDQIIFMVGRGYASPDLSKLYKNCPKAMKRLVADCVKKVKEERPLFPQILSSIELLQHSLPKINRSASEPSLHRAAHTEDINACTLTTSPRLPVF
C-Raf FL (full length CRAF with Y340E and Y341E activating mutations, co-expressed with h14-3-3 zeta), sequence (P63104 whole entry partner): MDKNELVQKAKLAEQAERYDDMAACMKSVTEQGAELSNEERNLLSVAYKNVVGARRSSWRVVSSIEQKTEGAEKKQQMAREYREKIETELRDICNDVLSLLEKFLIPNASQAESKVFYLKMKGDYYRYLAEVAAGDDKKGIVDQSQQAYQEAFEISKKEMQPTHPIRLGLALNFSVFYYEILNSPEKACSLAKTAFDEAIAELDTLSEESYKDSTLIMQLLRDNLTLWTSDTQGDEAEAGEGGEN

With `CNC(=O)C1Cc2ccc(-c3cc(NC(=O)c4cccc(C(F)(F)F)c4)cnc3C)cc2N2CCOCC12` (racemic) [Example 68, (rac)-N-methyl-9-(2-methyl-5-(3-(trifluoromethyl)benzamido)pyridin-3-yl)-1,2,4,4a,5,6-hexahydro-[1,4]oxazino[4,3-a]quinoline-5-carboxamide] as the compound, how does the IC50 read?
Its IC50 is 0.34 nM.

Which IC50 does the source give for `CCNC(=O)C1Cc2ccc(-c3cc(NC(=O)c4ccnc(C(F)(F)F)c4)ccc3C)cc2N2CCOCC12` (racemic) [Example 73, (rac)-N-ethyl-9-(2-methyl-5-(2-(trifluoromethyl)isonicotinamido)phenyl)-1,2,4,4a,5,6-hexahydro-[1,4]oxazino[4,3-a]quinoline-5-carboxamide] here?
Its IC50 is 0.2 nM.

For `CCNC(=O)C1Cc2ccc(-c3cc(NC(=O)c4ccnc(C(C)(F)F)c4)ccc3C)cc2N2CCOCC12` (racemic) [Example 74, (rac)-9-(5-(2-(1,1-difluoroethyl)isonicotinamido)-2-methylphenyl)-N-ethyl-1,2,4,4a,5,6-hexahydro-[1,4]oxazino[4,3-a]quinoline-5-carboxamide], which IC50 is on record?
Its IC50 is 0.28 nM.

`CCNC(=O)C1Cc2ccc(-c3cc(NC(=O)c4cccc(C(F)(F)F)c4)cnc3C)cc2N2CCOCC12` (racemic) [Example 75, (rac)-N-ethyl-9-(2-methyl-5-(3-(trifluoromethyl)benzamido)pyridin-3-yl)-1,2,4,4a,5,6-hexahydro-[1,4]oxazino[4,3-a]quinoline-5-carboxamide] was tested. Which IC50 did it give?
The IC50 was 0.48 nM.

`Cc1ccc(NC(=O)c2ccnc(C(C)(F)F)c2)cc1-c1ccc2c(c1)N1CCOCC1C(F)(CO)C2` (racemic) [Example 78, (rac)-2-(1,1-difluoroethyl)-N-(3-(5-fluoro-5-(hydroxymethyl)-1,2,4,4a,5,6-hexahydro-[1,4]oxazino[4,3-a]quinolin-9-yl)-4-methylphenyl)isonicotinamide] was tested. Which IC50 did it give?
The IC50 was 0.02 nM.

How did the IC50 turn out when `Cc1ncc(NC(=O)c2ccnc(C(C)(F)F)c2)cc1-c1ccc2c(c1)N1CCOCC1C(F)(CO)C2` (racemic) [Example 79, (rac)-2-(1,1-difluoroethyl)-N-(5-(5-fluoro-5-(hydroxymethyl)-1,2,4,4a,5,6-hexahydro-[1,4]oxazino[4,3-a]quinolin-9-yl)-6-methylpyridin-3-yl)isonicotinamide] was run?
The IC50 was 0.038 nM.

With `Cc1ncc(NC(=O)c2ccnc(C(C)(F)F)c2)cc1-c1ccc2c(c1)N1CCOC[C@H]1[C@](C)(C#N)C2` (racemic) [Example 87, (rac)-N-(5-(5-cyano-5-methyl-1,2,4,4a,5,6-hexahydro-[1,4]oxazino[4,3-a]quinolin-9-yl)-6-methylpyridin-3-yl)-2-(1,1-difluoroethyl)isonicotinamide] as the compound, how does the IC50 read?
Its IC50 is 0.022 nM.

`Cc1ccc(NC(=O)c2ccnc(C(C)(F)F)c2)cc1-c1ccc2c(c1)N1CCOC[C@H]1[C@@](C)(C#N)C2` (racemic) [Example 88, (rac)-N-(3-(5-cyano-5-methyl-1,2,4,4a,5,6-hexahydro-[1,4]oxazino[4,3-a]quinolin-9-yl)-4-methylphenyl)-2-(1,1-difluoroethyl)isonictinamide] was tested. Which IC50 did it give?
Its IC50 is 0.032 nM.

Which IC50 does the source give for `Cc1ncc(NC(=O)c2ccnc(C(C)(F)F)c2)cc1-c1ccc2c(c1)N1CCOC[C@H]1[C@@](C)(C#N)C2` (racemic) [Example 89, (rac)-N-(5-(5-cyano-5-methyl-1,2,4,4a,5,6-hexahydro-[1,4]oxazino[4,3-a]quinolin-9-yl)-6-methylpyridin-3-yl)-2-(1,1-difluoroethyl)isonicotinamide] here?
Its IC50 is 0.036 nM.

For `Cc1ccc(NC(=O)c2ccnc(C(C)(F)F)c2)cc1-c1ccc2c(c1)N1CCOC[C@H]1[C@H](C#N)C2` (racemic) [Example 90, (rac)-N-(3-(5-cyano-1,2,4,4a,5,6-hexahydro-[1,4]oxazino[4,3-a]quinolin-9-yl)-4-methylphenyl)-2-(1,1-difluoroethyl)isonicotinamid], which IC50 is on record?
The IC50 was 0.023 nM.

`Cc1ncc(NC(=O)c2ccnc(C(C)(F)F)c2)cc1-c1ccc2c(c1)N1CCOC[C@H]1[C@H](C#N)C2` (racemic) [Example 91, (rac)-N-(5-(5-cyano-1,2,4,4a,5,6-hexahydro-[1,4]oxazino[4,3-a]quinolin-9-yl)-6-methylpyridin-3-yl)-2-(1,1-difluoroethyl)isonicotinamide] was tested. Which IC50 did it give?
The IC50 was 0.076 nM.

Which IC50 does the source give for `Cc1ccc(NC(=O)c2ccnc(C(C)(F)F)c2)cc1-c1ccc2c(c1)N1CCOC[C@H]1[C@](C)(N)C2` (racemic) [Example 92, (rac)-(syn)-N-(3-(5-amino-5-methyl-1,2,4,4a,5,6-hexahydro-[1,4]oxazino[4,3-a]quinolin-9-yl)-4-methylphenyl)-2-(1,1-difluoroethyl)isonicotinamide] here?
The IC50 was 0.61 nM.

Which IC50 does the source give for `Cc1ccc(NC(=O)c2ccnc(C(C)(F)F)c2)cc1-c1ccc2c(c1)N1CCOC[C@H]1[C@@](C)(N)C2` (racemic) [Example 93, (rac)-(anti)-N-(3-(5-amino-5-methyl-1,2,4,4a,5,6-hexahydro-[1,4]oxazino[4,3-a]quinolin-9-yl)-4-methylphenyl)-2-(1,1-difluoroethyl)isonicotinamide] here?
The IC50 was 0.025 nM.

How did the IC50 turn out when `Cc1ccc(NC(=O)c2ccnc(C(F)(F)F)c2)cc1-c1cc2n(c(=O)c1)CCC1COCCN21` (racemic) [Example 94, (rac)-N-(4-methyl-3-(8-oxo-2,4,4a,5,6,8-hexahydro-1H-pyrido[2′,1′:2,3]pyrimido[6,1-c][1,4]oxazin-10-yl)phenyl)-2-(trifluoromethyl)isonicotinamide] was run?
Its IC50 is 0.019 nM.

How did the IC50 turn out when `Cc1ncc(NC(=O)c2ccnc(C(C)(F)F)c2)cc1-c1ccc2c(c1)N1CCOCCC1CC2O` (racemic) [Example 96, (rac)-2-(1,1-difluoroethyl)-N-(5-(7-hydroxy-1,2,5,5a,6,7-hexahydro-4H-[1,4]oxazepino[4,5-a]quinolin-10-yl)-6-methylpyridin-3-yl)isonicotinamide] was run?
Its IC50 is 0.053 nM.

For `Cc1ccc(NC(=O)c2ccnc(C(C)(F)F)c2)cc1-c1ccc2c(c1)N1CCOC[C@@H]1[C@@H](C(=O)O)C2` (racemic) [Example 100, (rac)-(cis)-9-(5-(2-(1,1-difluoroethyl)isonicotinamido)-2-methylphenyl)-1,2,4,4a,5,6-hexahydro-[1,4]oxazino[4,3-a]quinoline-5-carboxylic Acid], which IC50 is on record?
The IC50 was 0.037 nM.

`Cc1ccc(NC(=O)c2ccnc(C(F)(F)F)c2)cc1-c1cnc2c(c1)N1CCOC[C@H]1C[C@@H]2O` (racemic) [Example 101, rac-cis-N-(3-(6-hydroxy-1,2,4,4a,5,6-hexahydro-[1,4]oxazino[4,3-a][1,5]naphthyridin-9-yl)-4-methylphenyl)-2-(trifluoromethyl)isonicotinamide] was tested. Which IC50 did it give?
Its IC50 is 0.026 nM.

Which IC50 does the source give for `Cc1ncc(NC(=O)c2cccc(C(F)(F)F)c2)cc1-c1cnc2c(c1)N1CCOC[C@H]1C[C@@H]2O` (racemic) [Example 104, rac-cis-N-(5-(6-Hydroxy-1,2,4,4a,5,6-hexahydro-[1,4]oxazino[4,3-a][1,5]naphthyridin-9-yl)-6-methylpyridin-3-yl)-3-(trifluoromethyl)benzamide] here?
The IC50 was 0.044 nM.

Which IC50 does the source give for `Cc1ccc(NC(=O)c2ccnc(C(C)(F)F)c2)cc1-c1cnc2c(c1)N1CCOCC1CC2O` (racemic) [Example 107, rac-cis-2-(1,1-Difluoroethyl)-N-(3-(6-hydroxy-1,2,4,4a,5,6-hexahydro-[1,4]oxazino[4,3-a][1,5]naphthyridin-n-9-yl)-4-methylphenyl)isonicotinamide] here?
Its IC50 is 0.019 nM.

How did the IC50 turn out when `Cc1ccc(NC(=O)c2ccnc(C(F)(F)F)c2)cc1-c1cnc2c(c1)N1CCOCC1CC2=O` (racemic) [Example 110, rac-N-(4-methyl-3-(6-oxo-1,2,4,4a,5,6-hexahydro-[1,4]oxazino[4,3-a][1,5]naphthyridin-n-9-yl)phenyl)-2-(trifluoromethyl)isonicotinamide] was run?
Its IC50 is 0.002 nM.

For `Cc1ccc(NC(=O)c2ccnc(C(F)(F)F)c2)cc1-c1cnc2c(c1)N1CCOCC1CC2(F)F` (racemic) [Example 111, rac-N-(3-(6,6-Difluoro-1,2,4,4a,5,6-hexahydro-[1,4]oxazino[4,3-a][1,5]naphthyridin-9-yl)-4-methylphenyl)-2-(trifluoromethyl)isonicotinamide], which IC50 is on record?
Its IC50 is 0.0054 nM.
